Here are results for one molecule from ChEMBL document CHEMBL5505985 (Eur J Med Chem, 2024).

The source made the active and inactive calls. The rule behind the calls is not given here.

For data set [1], the system named is RAW264.7. The experiment in a line: Antiinflammatory activity in LPS-induced mouse RAW264.7 cells assessed as downregulation of IL-1 beta secretion preincubated for 1 hr followed by LPS stimulation and measured after 24 hrs by ELISA method. The class given is functional, cell-based. Conditions: dose 2-30 µM, time 25.0 hrs. On the technique in general: An ELISA detects its analyte on a solid surface through an enzyme-linked reagent.

For data set [2], the system named is RAW264.7. In words: Antiinflammatory activity in LPS-induced mouse RAW264.7 cells assessed as reduction in iNOS protien level at 10 uM preincubated for 1 hr followed by LPS stimulation and measured after 24 hrs […]. The data set is classed as functional, cell-based. The settings on record: time 25.0 hrs. For orientation: The Griess reaction detects nitrite, a stable product of nitric oxide.

The test system of data set [3] is RAW264.7. In words: Inhibition of LPS-induced NFkappaB activation in mouse RAW264.7 cells assessed as inhibition of IkappaBalpha phosphorylation level preincubated for 1 hr followed by LPS stimulation and measured after 30 mins by Westernblot analysis. The data set is classed as cell-based. The settings on record: dose 10-30 µM, time 1.5 hrs.
In data set [4] the test system is RAW264.7. The experiment in a line: Cytotoxicity activity mouse RAW264.7 cells assessed as reduction in cell viability at 10 uM incubated for 48 hrs by MTT assay. The data set is classed as toxicity, cell-based. The settings on record: raw264.7, 48 h. (In general: Tetrazolium assays rely on reduction of a dye to a coloured formazan, in cell work by metabolically active cells.)

Data set [5] concerns Mus musculus. In words: Antiinflammatory activity against DSS-induced ulcerative colitis BALB/c mouse assessed as reduction in DAI score at 0.25 mg/kg, po for 5 days and measured after 12 days. The settings on record: time 12.0 day. The class given is functional, organism-based.
Data set [6] relates to RAW264.7. In words: Inhibition of LPS-induced NFkappaB activation in mouse RAW264.7 cells assessed as inhibition of IKKalpha phosphorylation level preincubated for 1 hr followed by LPS stimulation and measured after 30 mins by Westernblot analysis. The class given is cell-based. Conditions: dose 10-30 µM, time 1.5 hrs.
In data set [7] the test system is Mus musculus. The experiment in a line: Antiinflammatory activity against DSS-induced ulcerative colitis BALB/c mouse assessed as amelioration of atrophied blood sinusoids at 0.25 mg/kg, po for 5 days and measured after 12 days. The class given is functional, organism-based. The settings on record: time 12.0 day.
Data set [8] concerns the target NACHT, LRR and PYD domains-containing protein 3 (Mus musculus) (UniProt Q8R4B8). The experiment in a line: Inhibition of NLRP3 inflammasome in LPS-induced mouse RAW264.7 cells assessed as reduction in NLRP3 activation at 10 to 30 uM primed with LPS for 4.5 hs followed by incubation with compound for 1 hr and later stimulation with ATP for 30 mins by Western blot analysis. The class given is cell-based. Conditions: dose 10-30 µM, time 1.5 hrs.

The target of data set [9] is T1, Prostaglandin G/H synthase 1 (Ovis aries, UniProt P05979).
T1 sequence (P05979 whole entry): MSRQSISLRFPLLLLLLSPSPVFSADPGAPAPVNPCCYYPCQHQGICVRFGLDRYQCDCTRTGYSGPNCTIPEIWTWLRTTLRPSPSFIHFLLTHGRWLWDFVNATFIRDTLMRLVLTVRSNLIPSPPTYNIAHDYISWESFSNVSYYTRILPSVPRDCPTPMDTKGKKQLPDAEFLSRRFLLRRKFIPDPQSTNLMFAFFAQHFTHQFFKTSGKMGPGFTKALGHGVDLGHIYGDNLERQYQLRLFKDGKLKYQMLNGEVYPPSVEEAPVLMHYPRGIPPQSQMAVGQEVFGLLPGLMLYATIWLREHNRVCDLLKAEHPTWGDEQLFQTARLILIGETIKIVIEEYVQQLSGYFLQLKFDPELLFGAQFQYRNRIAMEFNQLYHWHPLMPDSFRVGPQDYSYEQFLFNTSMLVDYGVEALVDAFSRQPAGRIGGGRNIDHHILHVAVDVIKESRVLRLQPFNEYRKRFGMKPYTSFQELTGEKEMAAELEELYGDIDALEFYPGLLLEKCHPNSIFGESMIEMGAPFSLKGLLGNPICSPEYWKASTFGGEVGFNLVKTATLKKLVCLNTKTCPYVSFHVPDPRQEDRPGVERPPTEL
The experiment in a line: Inhibition of sheep COX-1 using arachidonic acid as substrate pretreated for 5 mins followed by substrate addition and measured after 2 mins by fluorescence based analysis.

The subject of data set [10] is Mus musculus. In words: Antiinflammatory activity against DSS-induced ulcerative colitis BALB/c mouse assessed as amelioration of crypt architecture loss at 0.25 mg/kg, po for 5 days and measured after 12 days. The class given is functional, organism-based. Conditions: time 12.0 day.
The subject of data set [11] is RAW264.7. In words: Antiinflammatory activity in LPS-induced mouse RAW264.7 cells assessed as downregulation of TNF-alpha secretion preincubated for 1 hr followed by LPS stimulation and measured after 3 hrs by ELISA method. The class given is functional, cell-based. The settings on record: dose 2-30 µM, time 4.0 hrs.
In data set [12] the test system is RAW264.7. The experiment in a line: Antiinflammatory activity in LPS-induced mouse RAW264.7 cells assessed as suppression of PGE2 secretion at 2 to 30 uM preincubated for 1 hr followed by LPS stimulation and measured after 24 hrs by ELISA method. The class given is functional, cell-based. Conditions: dose 2-30 µM, time 25.0 hrs.
The subject of data set [13] is RAW264.7. In words: Inhibition of MAPK signalling pathway in LPS induced mouse RAW264.7 cells assessed as effect on ERK phosphorylation level at 10 to 30 uM preincubated for 1 hr followed by LPS stimulation and measured after 30 mins by Westernblot analysis. The settings on record: dose 10-30 µM, time 1.5 hrs. The class given is cell-based.
Data set [14] deals with NACHT, LRR and PYD domains-containing protein 3 (Mus musculus) (UniProt Q8R4B8). The experiment in a line: Inhibition of NLRP3 inflammasome in LPS-induced mouse RAW264.7 cells assessed as inhibition of ASC expression at 10 to 30 uM primed with LPS for 4.5 hs followed by incubation with compound for 1 hr and later stimulation with ATP for 30 mins by Western blot analysis. The class given is cell-based. The settings on record: dose 10-30 µM, time 1.5 hrs.

Data set [15] deals with T2, Prostaglandin G/H synthase 2 (Homo sapiens, UniProt P35354).
T2 sequence (P35354 whole entry): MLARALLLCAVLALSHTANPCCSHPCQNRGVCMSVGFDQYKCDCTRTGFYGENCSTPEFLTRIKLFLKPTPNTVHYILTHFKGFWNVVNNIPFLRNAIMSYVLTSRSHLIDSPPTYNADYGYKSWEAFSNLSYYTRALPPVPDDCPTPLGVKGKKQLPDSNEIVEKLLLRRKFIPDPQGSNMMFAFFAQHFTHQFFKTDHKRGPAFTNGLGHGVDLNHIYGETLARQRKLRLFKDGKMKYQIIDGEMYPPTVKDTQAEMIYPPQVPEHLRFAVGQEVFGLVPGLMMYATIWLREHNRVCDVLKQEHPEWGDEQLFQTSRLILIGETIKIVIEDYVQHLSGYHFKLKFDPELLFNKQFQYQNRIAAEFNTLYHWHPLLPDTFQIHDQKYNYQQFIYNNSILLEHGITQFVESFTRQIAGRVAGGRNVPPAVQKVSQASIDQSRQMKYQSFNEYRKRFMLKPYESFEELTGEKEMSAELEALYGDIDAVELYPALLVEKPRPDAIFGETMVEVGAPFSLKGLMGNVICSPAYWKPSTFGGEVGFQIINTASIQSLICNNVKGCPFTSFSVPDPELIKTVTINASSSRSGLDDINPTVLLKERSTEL
The experiment in a line: Inhibition of human recombinant COX-2 using arachidonic acid as substrate pretreated for 5 mins followed by substrate addition and measured after 2 mins by fluorescence based analysis.

The test system of data set [16] is Mus musculus. In words: Protection against DSS-induced ulcerative colitis BALB/c mouse assessed as recovery of cell matrix development at 0.25 mg/kg, po for 5 days and measured after 12 days by H and E staining based analysis. The class given is functional, organism-based. The settings on record: time 12.0 day.
Data set [17] concerns RAW264.7. In words: Inhibition of LPS-induced NFkappaB activation in mouse RAW264.7 cells assessed as reduction in NF-kappaB phosphorylation level preincubated for 1 hr followed by LPS stimulation and measured after 30 mins by Westernblot analysis. The class given is cell-based. Conditions: dose 10-30 µM, time 1.5 hrs.
The test system of data set [18] is RAW264.7. In words: Inhibition of MAPK signalling pathway in LPS induced mouse RAW264.7 cells assessed as effect on p38 phosphorylation level at 10 to 30 uM preincubated for 1 hr followed by LPS stimulation and measured after 30 mins by Westernblot analysis. The class given is cell-based. Conditions: dose 10-30 µM, time 1.5 hrs.
Data set [19] is described as follows: Selectivity index, ratio of IC50 for ovine COX-1 to IC50 for human COX-2.

Sequence of NACHT, LRR and PYD domains-containing protein 3 (Mus musculus) (Q8R4B8 whole entry, the tested form may be a part): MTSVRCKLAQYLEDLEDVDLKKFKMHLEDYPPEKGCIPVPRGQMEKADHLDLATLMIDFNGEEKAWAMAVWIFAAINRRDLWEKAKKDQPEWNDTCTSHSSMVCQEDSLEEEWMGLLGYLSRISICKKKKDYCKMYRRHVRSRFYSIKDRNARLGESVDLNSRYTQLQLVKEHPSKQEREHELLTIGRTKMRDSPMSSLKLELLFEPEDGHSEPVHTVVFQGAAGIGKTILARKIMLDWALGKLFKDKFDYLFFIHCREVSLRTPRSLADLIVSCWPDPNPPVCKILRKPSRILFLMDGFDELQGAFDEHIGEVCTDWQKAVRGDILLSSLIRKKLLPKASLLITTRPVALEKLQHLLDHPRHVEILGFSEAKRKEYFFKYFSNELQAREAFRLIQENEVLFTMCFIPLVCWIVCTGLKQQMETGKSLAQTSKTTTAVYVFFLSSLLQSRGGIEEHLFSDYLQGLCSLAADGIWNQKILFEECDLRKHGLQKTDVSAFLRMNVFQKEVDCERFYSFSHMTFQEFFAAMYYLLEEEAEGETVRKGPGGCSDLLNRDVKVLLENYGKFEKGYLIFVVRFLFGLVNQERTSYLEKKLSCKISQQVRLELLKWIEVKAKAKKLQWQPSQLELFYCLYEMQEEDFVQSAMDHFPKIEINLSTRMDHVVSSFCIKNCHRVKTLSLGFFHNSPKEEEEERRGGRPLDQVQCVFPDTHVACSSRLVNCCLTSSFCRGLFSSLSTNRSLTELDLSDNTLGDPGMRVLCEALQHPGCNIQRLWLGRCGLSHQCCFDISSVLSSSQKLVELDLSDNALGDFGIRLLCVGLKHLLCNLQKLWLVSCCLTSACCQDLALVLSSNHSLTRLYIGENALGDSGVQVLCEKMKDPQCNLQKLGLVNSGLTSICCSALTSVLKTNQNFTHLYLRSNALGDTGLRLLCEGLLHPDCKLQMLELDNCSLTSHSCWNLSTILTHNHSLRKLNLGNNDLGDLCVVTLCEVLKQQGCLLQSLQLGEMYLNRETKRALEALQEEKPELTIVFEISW

A word on the IC50: it is the concentration at which inhibition is half-maximal. With `COc1ccccc1C1=Nn2c(Cc3ccccc3Nc3c(Cl)cccc3Cl)nnc2SC1`, the Activity entry in [1] is “Dose-Dependent Effect”; in data set [4], “Non-Toxic”; in data set [11], “Dose-Dependent Effect”. For the same molecule, the result in data set [2], in data set [5], in data set [7], in [10], in data set [12] and in [16] was Active. For the same molecule, the inhibition result in [3], in data set [6] and in [17] was “Dose-Dependent Effect” each time. In addition, the inhibition entry in data set [8] and in [14] was “Active” each time. For the same molecule, the IC50 in data set [9] worked out at 26.3 µM; in data set [15] it was 1.53 µM. Also, the inhibition result in data set [13] and in data set [18] was “inactive” each time. In [19], the Ratio IC50 is 17.2.
